From publication PMC10044120, “Potent and selective covalent inhibition of the papain-like protease from SARS-CoV-2” (Nature Communications, 2023)
Like-named read-outs stand apart in the source and are kept apart here.

What was measured:
PLpro from SARS-CoV-2 [1] = molecular target: T1, PLpro from SARS-CoV-2 (Severe acute respiratory syndrome coronavirus 2, UniProt P0DTD1); assay: biochemical; type: biochemical
PLpro from SARS-CoV-2 [2] = molecular target: T1, PLpro from SARS-CoV-2; assay: biochemical; type: biochemical

Compound: C[C@@H](NC(=O)c1ccccc1CCC(=O)NNC(=O)CCl)c1cccc2ccccc12 [Compound 9, (R)-2-(3-(2-(2-chloroacetyl)hydrazineyl)-3-oxopropyl)-N-(1-(naphthalen-1-yl)ethyl)benzamide]
- remaining activity at 6.34 µM (PLpro from SARS-CoV-2 [1]; 0.5 h, inhibitor 6.34 uM): 38.1%
- remaining activity at 20 µM (PLpro from SARS-CoV-2 [1]; 0.5 h, inhibitor 20.00 uM): 17.8%
- IC50 (PLpro from SARS-CoV-2 [1]; after 30-min incubation, purified PLpro, Z-RLRGG-AMC substrate): 5.4 µM
- kinact/KI (PLpro from SARS-CoV-2 [2]): 110 M⁻¹ s⁻¹
- remaining activity at 1 µM (PLpro from SARS-CoV-2 [2]; 5 min, read-out: PLpro activity after preincubation, inhibitor 1 uM, preincubation 5 min): 103%
- remaining activity at 4 µM (PLpro from SARS-CoV-2 [2]; 5 min, read-out: PLpro activity after preincubation, inhibitor 4 uM, preincubation 5 min): 97.6%
- remaining activity at 5 µM (PLpro from SARS-CoV-2 [2]; 5 min, read-out: PLpro activity after preincubation, inhibitor 5 uM, preincubation 5 min): 92.9%
- remaining activity at 10 µM (PLpro from SARS-CoV-2 [2]; 5 min, read-out: PLpro activity after preincubation, inhibitor 10 uM, preincubation 5 min): 78.5%
- remaining activity at 15 µM (PLpro from SARS-CoV-2 [2]; 5 min, read-out: PLpro activity after preincubation, inhibitor 15 uM, preincubation 5 min): 66.8%
- remaining activity at 25 µM (PLpro from SARS-CoV-2 [2]; 5 min, read-out: PLpro activity after preincubation, inhibitor 25 uM, preincubation 5 min): 57.8%
- remaining activity at 30 µM (PLpro from SARS-CoV-2 [2]; 5 min, read-out: PLpro activity after preincubation, inhibitor 30 uM, preincubation 5 min): 62%
- remaining activity at 36 µM (PLpro from SARS-CoV-2 [2]; 5 min, read-out: PLpro activity after preincubation, inhibitor 36 uM, preincubation 5 min): 57.3%
- remaining activity at 1 µM (PLpro from SARS-CoV-2 [2]; 10 min, read-out: PLpro activity after preincubation, inhibitor 1 uM, preincubation 10 min): 103%
- remaining activity at 2 µM (PLpro from SARS-CoV-2 [2]; 10 min, read-out: PLpro activity after preincubation, inhibitor 2 uM, preincubation 10 min): 93.2%
- remaining activity at 5 µM (PLpro from SARS-CoV-2 [2]; 10 min, read-out: PLpro activity after preincubation, inhibitor 5 uM, preincubation 10 min): 74%
- remaining activity at 10 µM (PLpro from SARS-CoV-2 [2]; 10 min, read-out: PLpro activity after preincubation, inhibitor 10 uM, preincubation 10 min): 53.4%
- remaining activity at 15 µM (PLpro from SARS-CoV-2 [2]; 10 min, read-out: PLpro activity after preincubation, inhibitor 15 uM, preincubation 10 min): 47.4%
- remaining activity at 25 µM (PLpro from SARS-CoV-2 [2]; 10 min, read-out: PLpro activity after preincubation, inhibitor 25 uM, preincubation 10 min): 38.1%
- remaining activity at 30 µM (PLpro from SARS-CoV-2 [2]; 10 min, read-out: PLpro activity after preincubation, inhibitor 30 uM, preincubation 10 min): 42.9%
- remaining activity at 36 µM (PLpro from SARS-CoV-2 [2]; 10 min, read-out: PLpro activity after preincubation, inhibitor 36 uM, preincubation 10 min): 38.6%
- remaining activity at 2 µM (PLpro from SARS-CoV-2 [2]; 20 min, read-out: PLpro activity after preincubation, inhibitor 2 uM, preincubation 20 min): 77.2%
- remaining activity at 8 µM (PLpro from SARS-CoV-2 [2]; 20 min, read-out: PLpro activity after preincubation, inhibitor 8 uM, preincubation 20 min): 39.6%
- remaining activity at 1 µM (PLpro from SARS-CoV-2 [2]; 0.5 h, read-out: PLpro activity after preincubation, inhibitor 1 uM, preincubation 30 min): 83.9%
- remaining activity at 2 µM (PLpro from SARS-CoV-2 [2]; 0.5 h, read-out: PLpro activity after preincubation, inhibitor 2 uM, preincubation 30 min): 68.5%
- remaining activity at 4 µM (PLpro from SARS-CoV-2 [2]; 0.5 h, read-out: PLpro activity after preincubation, inhibitor 4 uM, preincubation 30 min): 44.8%
- remaining activity at 5 µM (PLpro from SARS-CoV-2 [2]; 0.5 h, read-out: PLpro activity after preincubation, inhibitor 5 uM, preincubation 30 min): 40.6%
- remaining activity at 8 µM (PLpro from SARS-CoV-2 [2]; 0.5 h, read-out: PLpro activity after preincubation, inhibitor 8 uM, preincubation 30 min): 30.9%
- remaining activity at 10 µM (PLpro from SARS-CoV-2 [2]; 0.5 h, read-out: PLpro activity after preincubation, inhibitor 10 uM, preincubation 30 min): 31.6%
- remaining activity at 15 µM (PLpro from SARS-CoV-2 [2]; 0.5 h, read-out: PLpro activity after preincubation, inhibitor 15 uM, preincubation 30 min): 12.2%
- remaining activity at 25 µM (PLpro from SARS-CoV-2 [2]; 0.5 h, read-out: PLpro activity after preincubation, inhibitor 25 uM, preincubation 30 min): 10.3%
- remaining activity at 30 µM (PLpro from SARS-CoV-2 [2]; 0.5 h, read-out: PLpro activity after preincubation, inhibitor 30 uM, preincubation 30 min): 13.7%
- remaining activity at 36 µM (PLpro from SARS-CoV-2 [2]; 0.5 h, read-out: PLpro activity after preincubation, inhibitor 36 uM, preincubation 30 min): 12.5%
- remaining activity at 1 µM (PLpro from SARS-CoV-2 [2]; 1 h, read-out: PLpro activity after preincubation, inhibitor 1 uM, preincubation 60 min): 68.1%
- remaining activity at 2 µM (PLpro from SARS-CoV-2 [2]; 1 h, read-out: PLpro activity after preincubation, inhibitor 2 uM, preincubation 60 min): 42.3%
- remaining activity at 4 µM (PLpro from SARS-CoV-2 [2]; 1 h, read-out: PLpro activity after preincubation, inhibitor 4 uM, preincubation 60 min): 21.8%
- remaining activity at 5 µM (PLpro from SARS-CoV-2 [2]; 1 h, read-out: PLpro activity after preincubation, inhibitor 5 uM, preincubation 60 min): 16.1%
- remaining activity at 8 µM (PLpro from SARS-CoV-2 [2]; 1 h, read-out: PLpro activity after preincubation, inhibitor 8 uM, preincubation 60 min): 10.3%
- remaining activity at 15 µM (PLpro from SARS-CoV-2 [2]; 1 h, read-out: PLpro activity after preincubation, inhibitor 15 uM, preincubation 60 min): 7.87%
- remaining activity at 25 µM (PLpro from SARS-CoV-2 [2]; 1 h, read-out: PLpro activity after preincubation, inhibitor 25 uM, preincubation 60 min): 12.5%
- remaining activity at 2 µM (PLpro from SARS-CoV-2 [2]; 85 min, read-out: PLpro activity after preincubation, inhibitor 2 uM, preincubation 85 min): 29.8%
- remaining activity at 2 µM (PLpro from SARS-CoV-2 [2]; 110 min, read-out: PLpro activity after preincubation, inhibitor 2 uM, preincubation 110 min): 18%
- remaining activity at 1 µM (PLpro from SARS-CoV-2 [2]; […], read-out: PLpro activity after preincubation, inhibitor 1 uM, preincubation 15 min): 93.3%
- remaining activity at 1 µM (PLpro from SARS-CoV-2 [2]; […], read-out: PLpro activity after preincubation, inhibitor 1 uM, preincubation 45 min): 79.9%
- remaining activity at 1 µM (PLpro from SARS-CoV-2 [2]; […], read-out: PLpro activity after preincubation, inhibitor 1 uM, preincubation 90 min): 54%
- remaining activity at 2 µM (PLpro from SARS-CoV-2 [2]; […], read-out: PLpro activity after preincubation, inhibitor 2 uM, preincubation 45 min): 56.1%
- remaining activity at 4 µM (PLpro from SARS-CoV-2 [2]; […], read-out: PLpro activity after preincubation, inhibitor 4 uM, preincubation 15 min): 73.3%
